From patent publication US20100022514A1, “Heterocycle Compounds and Methods of Use Thereof” (NORVARTIS AG, priority 2006, published 2010) come the findings set out here.

One assay concerns the target T1, HDAC-1 (Homo sapiens, UniProt Q13547).
T1 construct: made in house
Description: Deacetylase fluorescence assay (HDAC-1). The following applies: read-out: HDAC-1 IC50. Type of assay: biochemical. As to the method:
Conventional methods are used to express deacetylase enzymes and purify them from lysed cells. The following example describes an exemplary procedure, however equivalent procedures are within the scope of the invention.
The cell line used is a derivative of 293 cells overexpressing a fusion of the gene encoding each deacetylase protein with a nucleotide sequence encoding the Flag marker.
Cells are grown in Optimem, 2% Fetal Calf Serum, Pen/Strep. For enzyme preparation, Lysis buffer (IPLS) is 50 mM Tris-HCl, pH 7.5, 120 mM NaCl, 0.5 mM EDTA and 0.5% Nonidet P-40, to which is added one tablet of Protease inhibitors (Roche 11836170001) per 10 ml buffer. Other buffers are IPHS, which is IPLS containing 1 M NaCl; TBS (Sigma #T5912) dilute 10× stock to 1× with dH2O; HD buffer: 10 mM Tris pH 8.0 (1M Stock) 10 mM NaCl (5M Stock), 10% glycerol, and for dialysis: 400 μM PMSF is added (for 2 L: use 8 ml 100 mM Stock). Protease inhibitors (Complete mini, Boehringer Mannheim), 1 tablet/10 mL are added to all buffers but not used in buffers for enzyme assays.
Cells are harvested without using trypsin, and most cells are obtained easily in PBS, with gentle striking or agitation of flasks if necessary. More adherent cells are scraped in PBS. Cells are grown in 500 cm^2 trays, from which about half of the media is aspirated (50 ml total), then cells are scraped in the rest of the media and transferred to a centrifuge tube. Trays are washed with 25 ml cold PBS, scraped again to collect additional cells, and centrifuged at 1500 rpm at 4° C. for 5 min. Cells are washed at least 3 times in PBS to remove growth media, pelleting cells after each wash by centrifugation at 1500 rpm for 5 minutes. After washing, PBS is removed and the resulting cell pellet frozen at −80° C. for storage prior to purification.
For purification, cells are resuspended in lysis buffer, 12 ml of IPLS for cells collected from 10 500 cm trays. Cells are lysed at 4° C. for 3 hrs with rocking, and debris is removed by centrifugation for 20 min at 17,000 rpm in 30 ml centrifuge tubes. If supernatant is not clear afterward, centrifugation of the supernatant is repeated. Protein concentration of the whole cell lysate is determined (generally in the range of about 2-5 mg/ml).
For immunoprecipitation per mg of protein, 15 μL of anti-Flag M2-Agarose Affinity beads (Sigma #A2220) is used. Beads are prepared by washing 3 times with 10× bead volume of PBS and 1 time with IPLS, with centrifugation of the washes at 1500 rpm for 5 min. Whole cell lysate is incubated with the Ab-beads overnight at 4° C. Then beads are centrifuged and washed in 5× volume of the following buffers: three times in IPLS (30 sec at 4° C., spin at 1500 RPM for 5 min); three times in IPHS; and three times in TBS buffer. After each centrifugation, the supernatant is aspirated, leaving the pellet as dry as possible but avoiding sucking up any of the beads.
To elute the enzyme, beads are resuspended in 5× bead volume of TBS with protease inhibitor (Roche 11836170001) 1 tablet/10 mL. Enzyme is eluted with 400 μg/mL Flag peptide (Sigma #F-3290) for 3 hrs at 4° C. on rotator. Then beads are centrifuged, and the supernatant is transferred to a new tube to which is added 1/10 volume of glycerol. The supernatant is transferred to a dialysis cassette (Pierce #66410) using a 3 cc syringe and 18 G needle, and is dialyze sup in 2 L HD buffer for 2 hrs at 4° C. (1 L/hour). The resulting purified deacetylase is divided into aliquots (300 μL/tube), is snap frozen in dry ice bath, and is stored at −80° C.
For assay of deacetylase an assay based on Deacetylase Fluorescent Activity Assay/Drug Discovery Kit (BioMol # AK500) is used, however any equivalent deacetylase assay is within the scope of the invention.
The Fluorescent Assay Buffer (FAB) contains: 25 mM Tris-HCl, pH 8.0, 137 mM NaCl, 2.7 mM KCl and 1 mM MgCl2. […]

For assay [1], the system named is p21 promoter (p21-luc) in H1299 cells. Description: p21 promoter luciferase assay using stably transfected p21-luc in H1299 cells. In kind it is cell-based. The note with it: Homo sapiens, NCI-H1299. As to the method:
The cell lines used are derived from H1299 (p21-luc). The growth media used is RPMI 1640, 10% FBS, 1% Pen/Strep and the selection media added is 500 μg/mL Geneticin (Gibco). The buffer used is 5× cell culture lysis buffer (Promega #E1531), stored at −20 C and the Luciferase assay reagent (Promega #E1483) is stored at −70° C. The results of the assay are analyzed using Wallac Software.
To assay Luciferase, the cell culture medium is removed after one day of growth and the flasks are washed once with PBS. The cells are trypsinized in 20 mL of media and the trypsin is neutralized. The cells are counted (0.5-1 mL) on a Vi-Cell XR cell viability analyzer.
Cells are then diluted to a concentration of approximately 5000 cells/200 μL, and 190 μL samples are aliquoted into each well of a Costar white 96-well TC treated white bottom plate with lid (Costar #3917). Plates are then incubated overnight at 37 C.
After a further day, a sample of the compound is added to the wells for assay.
After a further day, the cells are lysed and the luciferase activity of the lysed cells is measured. Each well is washed twice with PBS and 20 μL/well of 1× cell culture lysis buffer (dilute 5× to 1× in distilled water) is added to each well. The microtiter plates are then shaken on a microtiter plate shaker for 20 minutes at room temperate at a speed setting of 5-6. After removal from the shaker, 100 μL of Luciferase Reagent is added to each well. Each microtiter plate is then read on Wallac Envision instrument.

T1 sequence (Q13547 whole entry): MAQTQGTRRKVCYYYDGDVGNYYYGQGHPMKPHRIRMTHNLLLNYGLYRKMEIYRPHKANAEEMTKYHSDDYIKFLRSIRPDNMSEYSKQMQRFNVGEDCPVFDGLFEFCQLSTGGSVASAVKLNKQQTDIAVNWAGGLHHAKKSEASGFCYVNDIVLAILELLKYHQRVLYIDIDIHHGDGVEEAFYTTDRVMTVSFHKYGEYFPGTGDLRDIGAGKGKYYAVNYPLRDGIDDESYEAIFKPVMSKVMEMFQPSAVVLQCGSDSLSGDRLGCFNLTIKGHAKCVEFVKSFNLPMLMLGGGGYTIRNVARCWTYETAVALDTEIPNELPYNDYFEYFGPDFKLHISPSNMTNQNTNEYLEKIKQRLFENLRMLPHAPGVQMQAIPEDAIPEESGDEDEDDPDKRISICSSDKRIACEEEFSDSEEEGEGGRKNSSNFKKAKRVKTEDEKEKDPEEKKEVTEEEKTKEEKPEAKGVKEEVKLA

For the compound `O=C(/C=C/c1ccc2c(c1)CN(CCC1CCCCC1)CC2)NO` [Example 45, (E)-3-[2-(2-Cyclohexyl-ethyl)-1,2,3,4-tetrahydro-isoquinolin-7-yl]-N-hydroxy-acrylamide], at HDAC-1, the IC50 lay in the range of 100 to 1000 nM. In addition, in assay [1], the AC50 is greater than 1000 nM.

Take `Cn1cc(CCN2CCc3ccc(/C=C/C(=O)NO)cc3C2)c(-c2ccccc2)n1` [Example 46, (E)-N-Hydroxy-3-{2-[2-(1-methyl-3-phenyl-1H-pyrazol-4-yl)-ethyl]-1,2,3,4-tetrahydro-isoquinolin-7-yl}-acrylamide]: on HDAC-1, the IC50 is 100 to 1000 nM. The same compound yielded an AC50 in assay [1] greater than 1000 nM.

As for `O=C(/C=C/c1ccc2c(c1)CN(CCc1c[nH]nc1-c1ccccc1)CC2)NO` [Example 47, (E)-N-Hydroxy-3-{2-[2-(3-phenyl-1H-pyrazol-4-yl)-ethyl]-1,2,3,4-tetrahydro-isoquinolin-7-yl}-acrylamide], the IC50 at HDAC-1 was in the range of 100 to 1000 nM. Besides, the AC50 in assay [1] is greater than 1000 nM.

`O=C(/C=C/c1ccc2c(c1)CN(CCc1ccnn1-c1ccccc1)CC2)NO` [Example 48, (E)-N-Hydroxy-3-{2-[2-(2-phenyl-2H-pyrazol-3-yl)-ethyl]-1,2,3,4-tetrahydro-isoquinolin-7-yl}-acrylamide]: the IC50 on HDAC-1 was in the range of 100 to 1000 nM. In assay [1], this compound came in with an AC50 greater than 1000 nM.

Take `Cc1c(CCN2CCc3ccc(/C=C/C(=O)NO)cc3C2)cnn1-c1ccccc1` [Example 49, (E)-N-Hydroxy-3-{2-[2-(5-methyl-1-phenyl-1H-pyrazol-4-yl)-ethyl]-1,2,3,4-tetrahydro-isoquinolin-7-yl}-acrylamide]: the IC50 on HDAC-1 is 100 to 1000 nM. The same compound gave an AC50 in assay [1] greater than 1000 nM.

As to `Cc1nn(C)c(C)c1CCN1CCc2ccc(/C=C/C(=O)NO)cc2C1` [Example 50, (E)-N-Hydroxy-3-{2-[2-(1,3,5-trimethyl-1H-pyrazol-4-yl)-ethyl]-1,2,3,4-tetrahydro-isoquinolin-7-yl}-acrylamide], at HDAC-1, the IC50 was in the range of 100 to 1000 nM. Further, in assay [1], the AC50 is greater than 1000 nM.

Turning to `O=C(/C=C/c1ccc2c(c1)CN(Cc1ccccc1)CC2)NO` [Example 51, (E)-3-(2-Benzyl-1,2,3,4-tetrahydro-isoquinolin-7-yl)-N-hydroxy-acrylamide], at HDAC-1, the IC50 was 100 to 1000 nM. The compound further had an AC50 in assay [1] greater than 1000 nM.

As to `Cc1nn(C)c(C)c1CN1CCc2ccc(/C=C/C(=O)NO)cc2C1` [Example 52, (E)-N-Hydroxy-3-[2-(1,3,5-trimethyl-1H-pyrazol-4-ylmethyl)-1,2,3,4-tetrahydro-isoquinolin-7-yl]-acrylamide], at HDAC-1, the IC50 was 100 to 1000 nM. Also, the half-maximal activity concentration (AC50) in assay [1] was greater than 1000 nM.

For `CN(C)c1ccc(C(=O)N2CCc3ccc(/C=C/C(=O)NO)cc3C2)cc1` [Example 53, (E)-3-[2-(4-Dimethylamino-benzoyl)-1,2,3,4-tetrahydro-isoquinolin-7-yl]-N-hydroxy-acrylamide], on HDAC-1, the IC50 was less than 100 nM. The AC50 in assay [1] is greater than 1000 nM.

For `O=C(/C=C/c1ccc2c(c1)CN(S(=O)(=O)c1ccccc1)CC2)NO` [Example 54, (E)-3-(2-Benzenesulfonyl-1,2,3,4-tetrahydro-isoquinolin-7-yl)-N-hydroxy-acrylamide], the half-inhibitory concentration (IC50) at HDAC-1 fell in the range of 100 to 1000 nM. This compound also had an AC50 in assay [1] greater than 1000 nM.

For `COc1cccc(S(=O)(=O)N2CCc3ccc(/C=C/C(=O)NO)cc3C2)c1` [Example 55, (E)-N-Hydroxy-3-[2-(3-methoxy-benzenesulfonyl)-1,2,3,4-tetrahydro-isoquinolin-7-yl]-acrylamide], the IC50 on HDAC-1 is 100 to 1000 nM. The same compound gave an AC50 in assay [1] greater than 1000 nM.

Regarding `COc1ccc(S(=O)(=O)N2CCc3ccc(/C=C/C(=O)NO)cc3C2)cc1` [Example 56, (E)-N-Hydroxy-3-[2-(4-methoxy-benzenesulfonyl)-1,2,3,4-tetrahydro-isoquinolin-7-yl]-acrylamide], on HDAC-1, the IC50 fell in the range of 100 to 1000 nM. Further, the AC50 in assay [1] is greater than 1000 nM.

On to `COc1ccc(C(=O)N2CCc3ccc(/C=C/C(=O)NO)cc3C2)cc1` [Example 57, (E)-N-Hydroxy-3-[2-(4-methoxy-benzoyl)-1,2,3,4-tetrahydro-isoquinolin-7-yl]-acrylamide], for which the IC50 on HDAC-1 is less than 100 nM. For the same compound, the AC50 in assay [1] was greater than 1000 nM.

`COc1ccc(C(=O)N2CCc3ccc(CCC(=O)NO)cc3C2)cc1` [Example 58, N-Hydroxy-3-[2-(4-methoxy-benzoyl)-1,2,3,4-tetrahydro-isoquinolin-7-yl]-propionamide]: the IC50 at HDAC-1 was in the range of 100 to 1000 nM. This compound showed an AC50 in assay [1] greater than 1000 nM.

Consider `COc1cccc(C(=O)N2CCc3ccc(/C=C/C(=O)NO)cc3C2)c1` [Example 59, (E)-N-Hydroxy-3-[2-(3-methoxy-benzoyl)-1,2,3,4-tetrahydro-isoquinolin-7-yl]-acrylamide], for which the IC50 on HDAC-1 was 100 to 1000 nM. In assay [1], this compound registered an AC50 greater than 1000 nM.

For `COc1cccc(C(=O)N2CCc3ccc(CCC(=O)NO)cc3C2)c1` [Example 60, N-Hydroxy-3-[2-(3-methoxy-benzoyl)-1,2,3,4-tetrahydro-isoquinolin-7-yl]-propionamide], on HDAC-1, the IC50 was 100 to 1000 nM. This compound also registered an AC50 in assay [1] greater than 1000 nM.

As to `Cc1[nH]c2ccccc2c1CC(=O)N1CCc2ccc(/C=C/C(=O)NO)cc2C1` [Example 61, (E)-N-Hydroxy-3-{2-[2-(2-methyl-1H-indol-3-yl)-acetyl]-1,2,3,4-tetrahydro-isoquinolin-7-yl}-acrylamide], on HDAC-1, the IC50 is less than 100 nM. Moreover, the AC50 in assay [1] is greater than 1000 nM.

In the case of `Cc1[nH]c2ccccc2c1CC(=O)N1CCc2ccc(CCC(=O)NO)cc2C1` [Example 62, N-Hydroxy-3-{2-[2-(2-methyl-1H-indol-3-yl)-acetyl]-1,2,3,4-tetrahydro-isoquinolin-7-yl}-propionamide], the IC50 on HDAC-1 was less than 100 nM. The AC50 in assay [1] was greater than 1000 nM.

In the case of `O=C(/C=C/c1ccc2c(c1)CN(C(=O)Cc1ccccc1)CC2)NO` [Example 63, (E)-N-Hydroxy-3-(2-phenylacetyl-1,2,3,4-tetrahydro-isoquinolin-7-yl)-acrylamide], the IC50 at HDAC-1 is less than 100 nM. In assay [1], this compound came in with an AC50 greater than 1000 nM.

For the compound `Cc1ccc(CC(=O)N2CCc3ccc(/C=C/C(=O)NO)cc3C2)cc1` [Example 64, (E)-N-Hydroxy-3-[2-(2-p-tolyl-acetyl)-1,2,3,4-tetrahydro-isoquinolin-7-yl]-acrylamide], the IC50 at HDAC-1 was less than 100 nM. The same compound gave an AC50 in assay [1] greater than 1000 nM.

As a reminder, the IC50 is the concentration that gives 50% inhibition. For orientation: AC50 means the midpoint of the concentration-response curve, whichever way the signal moves.
